# Laboratory results taken from patent US10597649B2, “Tau protease compositions and methods of use” (Oligomerix, Inc., priority 2011, dated 2020).
# How the values were obtained:
# Assay type in all cases: biochemical
# tau 4R2N trimer protease = biological target: T1, tau 4R2N trimer protease (Homo sapiens, UniProt P10636); test: Peptide assay (tau peptide 335-353, reverse-phase HPLC) used to screen serine protease inhibitors
# T1 construct: Stabilization buffer enables production of full length monomer, dimer and trimer for tau protease; made in house; host or cells: E. coli BL21 (DE3) Gold
# From the text: N-terminal sequencing of fragments using mass spectrometry identified autoproteolytic cut sites. In particular, cutting at the Lys340-Ser341 (340KS341) cut site occurred readily. Therefore, a 19-amino acid peptide corresponding to amino acids 335G to 353L of tau protein was synthesized that contained the KS cut site (340KS341). The reaction was monitored by reverse-phase high-pressure liquid chromatography (HPLC). […] An asterisk marks a non-specific contaminant that was used as a marker. […] 10 μg of tau peptide 335-353 ([…]) (SEQ ID NO:19) was custom synthesized by Genscript (Piscataway, N.J., USA) and 1 mg was dissolved in 1 mL of buffer (25 mM Tris-HCl pH 7.4). […] of peptide was incubated with 11 μg of tau trimer protease in 30 μL buffer 20 hr at 37° C. and analyzed by HPLC [SystemGold® 32Karat™ LC-CE System, Beckman Coulter, Inc., (Indianapolis, Ind.)] using a linear gradient of acetonitrile in 0.1% TFA 0-60% acetonitrile on an analytical C18 column (12.5 cm×2.1 mm, 5 μm, (Supelco, Bellefonte, Pa., USA). 30 μg of peptide was incubated without tau protease as a negative control and analyzed with the same method;
# The peptide assay for tau 4R2N trimer activity described in FIG. 5 was used to screen a series of serine protease inhibitors. 1 mM AEBSF was incubated with tau 4R2N trimer for 1 hr at room temperature before addition of the peptide substrate. […] The asterisk indicates an artifactual peak unrelated to the peptide;
# Tau 4R2N oligomer ladder = biological target: T2, Tau 4R2N oligomer ladder (Homo sapiens, UniProt P10636); test: FP-TAMRA serine hydrolase probe labeling of oligomerized tau 4R2N; conditions: pre-treated with 0, 0.1, 1.0 or 10.0 mM AEBSF for 1 hr; 5 micromolar FP-TAMRA, 4 hrs
# T2 construct: Stabilization buffer enables production of full length monomer, dimer and trimer for tau protease; made in house; host or cells: E. coli BL21 (DE3) Gold
# From the text: Tau 4R2N oligomer ladder was labeled with fluorophosphonate (FP) linked to a fluorescent TAMRA tag (ThermoFisher Scientific), a probe that is specific for active site serines in serine proteases. FP probes specifically label the serines of enzymatically-active serine hydrolases. The serine protease-specific inhibitor, AEBSF, was used in a dose-response study to determine whether tau was being specifically labeled with FP. […] Samples were run without reductant or with reductant as indicated. For labeling, 10 μg of tau 4R2N was labeled with 5 micromolar FP-TAMRA in 10 μL buffer (25 mM Tris-HCl pH 7.4, 150 mM NaCl, 0.5 mM EDTA, 0.1% NP-40, 5% glycerol) for 4 hrs at room temperature in the dark. Samples were pre-treated with 0, 0.1, 1.0, or 10.0 mM AEBSF for 1 hr at room temperature to block the active-site serine before the addition of the FP-TAMRA probe. Samples were divided in half and run with sample buffer with or without reductant as indicated;
# 4-(2-Aminoethyl)benzenesulfonyl fluoride hydrochloride (AEBSF) was prepared fresh in anhydrous DMSO. (Sigma Chemical Co.) A8456-≥97%, Molecular Weight: 239.69; 9 mg AEBSF/187.2 μL DMSO=200 mM. Serine hydrolase FP probes were equilibrated to room temperature in pouch with desiccant. Serine hydrolase FP probe was dissolved in 100 μL of DMSO to make a 0.1 mM stock solution. Samples were aliquotted in 5-μL/tubes and store in −80° C. freezer. […]
# [1] = test system: tau protein from a specimen of Alzheimer's brain; test: FP-TAMRA labeling of tau immunopurified from AD brain; conditions: AD brain lysate treated with PMSF before 2 μM FP-TAMRA probe
# From the text: Serine hydrolases include a class of enzymes that include serine proteases. The serine hydrolase superfamily is one of the largest known enzyme families that share a catalytic mechanism that involves a serine nucleophile. Phenylmethanesulfonyl fluoride (PMSF) irreversibly binds to the active site serine of serine hydrolases to inactivate their enzymatic activity and prevents the probe from labeling them. […] Protein was extracted from an AD brain by Dounce homogenization in TPER buffer (ThermoFisher Scientific) with 1 mM EDTA, 1 μg/mL pepstatin A, […] phosphoramidon, phosphatase inhibitor (ThermoFisher Scientific). The lysate was cleared by centrifugation at 10,000×g for 20 min. The supernatant was depleted for biotin using Streptavidin-agarose (ThermoFisher Scientific). A probe specific for active serine hydrolases, fluorophosphonate (FP) labeled with a fluorescent carboxytetramethylrhodamine (TAMRA) tag (ThermoFisher Scientific), was incubated with the lysate at a final concentration of 2 μM. As a control for non-specific labeling, a portion of the lysate was treated with phenylmethanesulfonyl fluoride (PMSF), an irreversible inhibitor of serine hydrolases, including tau protease, before using the FP-TAMRA probe. Biotinylated monoclonal antibody HT7 (ThermoFisher Scientific) was used to capture total tau from the lysate with streptavidin-agarose beads (ThermoFisher Scientific). […]
# [2] = Tau protease enzymatic activity of truncated tau peptides (general statement)
# T1 sequence (P10636 1-441 isoform P10636-8): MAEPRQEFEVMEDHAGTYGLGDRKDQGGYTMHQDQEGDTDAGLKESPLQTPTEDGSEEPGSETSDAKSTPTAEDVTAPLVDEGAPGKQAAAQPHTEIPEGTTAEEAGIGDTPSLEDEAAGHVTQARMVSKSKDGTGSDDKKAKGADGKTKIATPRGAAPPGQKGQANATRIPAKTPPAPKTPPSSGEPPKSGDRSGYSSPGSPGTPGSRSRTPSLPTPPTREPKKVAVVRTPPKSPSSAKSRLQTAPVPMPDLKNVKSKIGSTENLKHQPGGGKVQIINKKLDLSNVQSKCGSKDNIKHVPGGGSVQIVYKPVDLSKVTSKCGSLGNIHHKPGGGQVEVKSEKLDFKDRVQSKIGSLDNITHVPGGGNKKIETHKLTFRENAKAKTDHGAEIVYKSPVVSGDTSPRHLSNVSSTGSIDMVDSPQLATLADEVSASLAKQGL
# T2 sequence (P10636 1-441 isoform P10636-8): as above
molecule,measurement,setting,value
"Cl.NCCc1ccc(S(=O)(=O)F)cc1 [AEBSF, 4-(2-Aminoethyl)benzenesulfonyl fluoride hydrochloride]","inhibition of tau 4R2N trimer protease activity, peptide assay (FIG. 14A)","tau 4R2N trimer protease; 1 mM AEBSF, 1 hr at room temperature before peptide substrate",inhibited
same,FP-TAMRA labeling of tau 4R2N,Tau 4R2N oligomer ladder,inhibited in a dose-dependent manner
"O=S(=O)(F)Cc1ccccc1 [PMSF, phenylmethanesulfonyl fluoride]",inhibition of cleavage of the peptide (FIG. 14E),"tau 4R2N trimer protease; 1 mM PMSF (also printed 1 μM), one hr at room temperature before peptide substrate",strongly inhibited
same,FP-TAMRA labeling of immunocaptured protein bands,[1],reduced labeling
"TP-118: 118 amino acid truncated tau peptide, 4R2N 268-385 (SEQ ID NO:2)",tau protease enzymatic activity,[2],retain tau protease enzymatic activity
